Data: ChEMBL document CHEMBL1777691, “Structure based design of novel inhibitors for histidinol dehydrogenase from Geotrichum candidum” (Bioorg Med Chem Lett, 2010)
pIC50: −log10 of the molar value.

Assay: Inhibition of Geotrichum candidum Histidinol dehydrogenase

Compound | pIC50
COC(=O)CCc1c[nH]cn1 | 5.28
O=C(O)C1Cc2c(I)nc(I)n2C(=O)N1 (stereo not drawn) | 4.23
COC(=O)NC(Cc1cncn1C)C(=O)OC (stereo not drawn) | 4.97
CCOC(=O)NC(Cc1cn(C)cn1)C(=O)OC (stereo not drawn) | 4.53
O=C1NCCc2cncn21 | 4.62

Next, values leading:

pIC50 | Compound
5.45 | O=C(O)C1Cc2cncn2C(=O)N1 (stereo not drawn)
3.91 | COC(=O)C1Cc2c(Cl)ncn2C(=O)N1 (stereo not drawn)
5.50 | O=C(O)CCc1c[nH]cn1
